Structures can show the parent of a compound that is named as a salt.
How the values were obtained:
Experiment in all cases: In vitro MMP inhibition, IC50 determination (fluorogenic substrate I)
Type in all cases: biochemical
Human recombinant MMP-1 = biological target: T1, Human recombinant MMP-1 (Homo sapiens, UniProt P03956)
T1 construct: made in house; host or cells: MMP-1-transfected HT-1080 cells (spent media)
T1 sequence (P03956 100-469): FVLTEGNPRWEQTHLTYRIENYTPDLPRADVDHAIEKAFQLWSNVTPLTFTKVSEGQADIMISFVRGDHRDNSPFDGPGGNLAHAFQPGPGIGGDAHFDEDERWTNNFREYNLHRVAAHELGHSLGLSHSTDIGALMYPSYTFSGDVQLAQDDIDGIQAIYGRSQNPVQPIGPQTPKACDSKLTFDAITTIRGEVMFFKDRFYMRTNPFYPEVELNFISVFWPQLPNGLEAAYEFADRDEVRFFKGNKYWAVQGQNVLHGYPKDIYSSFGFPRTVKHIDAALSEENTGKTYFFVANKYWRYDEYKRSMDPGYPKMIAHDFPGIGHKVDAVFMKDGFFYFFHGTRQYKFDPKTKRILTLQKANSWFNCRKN
Method: (§1) Several hydroxamates and salts thereof were analyzed in in vitro assays to determine their ability to inhibit the MMP cleavage of peptide substrates. Inhibition (Ki) and IC50 constants were calculated from the assayed hydroxamate-MMP interactions.
(§2) Human recombinant MMP-1, MMP-2, MMP-9, MMP-13, and MMP-14 were used in this assay. All enzymes were prepared in Assignee's laboratories following usual laboratory procedures. Protocols for the preparation and use of these enzymes are available in the scientific literature. See, e.g., Enzyme Nomenclature (Academic Press, San Diego, Calif., 1992) (and the citations therein). See also, Frije et al., J. Biol. Chem., 26(24), 16766-73 (1994).
The MMP-1 proenzyme was purified from the spent media of MMP-1-transfected HT-1080 cells provided by Dr. Harold Welgus of Washington University (St. Louis, Mo.). The protein was purified on a zinc chelating column.
(§3) All MMPs were activated using 4-aminophenylmercuric acetate (“APMA”, Sigma Chemical, St. Louis, Mo.) or trypsin. MMP-9 also was activated using human recombinant MMP-3 (purified in Assignee's laboratory following standard cloning and purification techniques).
(§4) Two fluorogenic, methoxycoumarin-containing polypeptide substrates were used in the MMP inhibition assays:
(§5) MCA-ProLeuGlyLeuDpaAlaArgNH2 (I)
(§6) Here, “Dpa” is 3-(2,4-dinitrophenyl)-L-2,3-diaminopropionyl group, and “MCA” is 7-methoxycoumarin-4-yl acetyl. Substrate (I) was purchased from Baychem (Redwood City, Calif.), and substrate II was prepared Assignee's laboratory. Substrate I was used in the IC50 determination assays, while substrate II was used in the Ki determination assays. In the absence of MMP inhibitory activity, either substrate is cleaved at the Gly-Leu peptide bond. This cleavage separates the highly fluorogenic peptide from the 2,4-dinitrophenyl quencher, thus resulting in increase of fluorescent intensity.
(§7) The stock solutions of the assayed hydroxamates (or salts thereof) were prepared in 1% dimethyl sulfoxide (DMSO). These stock solutions were diluted in Buffer A (100 mM Tris-HCl, 100 mM NaCl, 10 mM CaCl2, 0.05% polyoxyethylene 23 lauryl ether, pH 7.5) to obtain solutions with different hydroxamate concentrations, i.e., assay solutions with different concentrations of the assayed MMP inhibitory compound. The experiment controls contained the same amount of Buffer A/DMSO as the assayed sample, but contained no hydroxamate (or salt thereof).
(§8) The assays from which the IC50 determinations were made were performed as follows. The MMPs were activated with either trypsin or APMA (4-aminophenylmercuric acetate, Sigma Chemical, St. Louis, Mo.). The assayed hydroxamate samples were, incubated in Microfluorrm White Plates (Dynatech, Chantilly, VA) and analyzed on a Perkin Elmer L550 plate reader (Norwalk, Conn.). The excitation wavelength was 328 nm, and the emission wavelength—415 nm. All samples (assayed hydroxamates and controls) were incubated in separate plates at room temperature in the presence of 4 μM of MMP substrate (I). As stated in the previous paragraph, samples containing varying concentrations of the same assayed hydroxamate were prepared. Inhibition was measured as a reduction in fluorescent intensity as a function of MMP inhibitor concentration.

Human recombinant MMP-13 = biological target: T2, Human recombinant MMP-13 (Homo sapiens, UniProt P45452)
T2 construct: made in house; host or cells: baculovirus / insect cells
In short: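 Fluorescence at 415 nm (excitation 328 nm) reports Gly-Leu cleavage of 4 μM quenched methoxycoumarin peptide substrate I. Human recombinant MMP-13, activated by trypsin or APMA, was incubated at room temperature with varied inhibitor concentrations in pH 7.5 Tris/NaCl/CaCl2 buffer; IC50 derived from reduced fluorescence.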

Human recombinant MMP-9 = biological target: T3, Human recombinant MMP-9 (Homo sapiens, UniProt P14780)
T3 construct: made in house; host or cells: MMP-9-transfected HT1080 cells (spent media)
T3 sequence (P14780 107-707 limits assumed): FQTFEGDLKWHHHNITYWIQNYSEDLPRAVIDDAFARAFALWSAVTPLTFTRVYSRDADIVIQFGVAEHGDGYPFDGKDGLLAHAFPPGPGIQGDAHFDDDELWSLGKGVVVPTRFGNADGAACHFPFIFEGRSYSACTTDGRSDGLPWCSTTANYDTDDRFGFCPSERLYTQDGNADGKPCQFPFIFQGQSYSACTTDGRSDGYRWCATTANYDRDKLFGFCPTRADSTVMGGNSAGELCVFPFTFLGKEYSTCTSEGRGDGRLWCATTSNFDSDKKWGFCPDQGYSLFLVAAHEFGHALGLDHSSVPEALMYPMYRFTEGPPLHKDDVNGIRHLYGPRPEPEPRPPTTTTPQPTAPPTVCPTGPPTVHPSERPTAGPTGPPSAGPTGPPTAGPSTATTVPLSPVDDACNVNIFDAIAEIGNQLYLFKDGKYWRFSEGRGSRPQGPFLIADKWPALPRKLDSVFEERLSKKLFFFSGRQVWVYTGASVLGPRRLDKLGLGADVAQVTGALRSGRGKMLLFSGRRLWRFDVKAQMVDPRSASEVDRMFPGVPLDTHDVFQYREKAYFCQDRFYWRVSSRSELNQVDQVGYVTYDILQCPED
Method: as §1, §2
The MMP-9 proenzyme was purified by gelatin Sepharose chromatography from spent media of MMP-9-transfected HT1080 cells provided by Dr. Howard Welgus of Washington University (St. Louis, Mo.).
as §3, §4, §5, §6, §7, §8

Human recombinant MMP-14 = biological target: T4, Human recombinant MMP-14 (Homo sapiens, UniProt P50281)
T4 construct: The catalytic domain enzyme was expressed in E. coli inclusion bodies, solubilized in urea; made in house
Method: as §1, §2
The MMP-14 full length cDNA was provided by Dr. Gregory Goldberg of Washington University (St. Louis, Mo.). The catalytic domain enzyme was expressed in E. coli inclusion bodies, solubilized in urea, purified on a preparative […] reverse phase HPLC column, and then refolded in the presence of zinc acetate and purified for use.
as §3, §4, §5, §6, §7, §8

Human recombinant MMP-2 = biological target: T5, Human recombinant MMP-2 (Homo sapiens, UniProt P08253)
T5 construct: made in house; host or cells: MMP-2-transfected p2AHT2 cells
T5 sequence (P08253 110-660): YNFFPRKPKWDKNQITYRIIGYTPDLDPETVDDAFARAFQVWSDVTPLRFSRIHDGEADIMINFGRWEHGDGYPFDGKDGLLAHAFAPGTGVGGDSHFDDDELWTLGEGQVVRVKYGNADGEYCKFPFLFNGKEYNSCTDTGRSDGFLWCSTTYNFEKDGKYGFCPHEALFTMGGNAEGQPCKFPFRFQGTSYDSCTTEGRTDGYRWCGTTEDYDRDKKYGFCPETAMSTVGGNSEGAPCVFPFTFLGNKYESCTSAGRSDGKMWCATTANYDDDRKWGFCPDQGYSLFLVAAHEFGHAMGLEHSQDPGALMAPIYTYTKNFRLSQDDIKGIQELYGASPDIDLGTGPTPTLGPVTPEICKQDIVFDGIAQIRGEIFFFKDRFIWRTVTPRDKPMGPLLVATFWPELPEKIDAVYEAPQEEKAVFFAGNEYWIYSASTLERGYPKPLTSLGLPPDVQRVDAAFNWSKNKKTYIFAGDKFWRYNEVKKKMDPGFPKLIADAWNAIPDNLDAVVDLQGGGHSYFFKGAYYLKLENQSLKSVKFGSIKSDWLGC
In short: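 IC50 was derived from the concentration-dependent fall in fluorescence (ex 328, em 415 nm) on Gly-Leu cleavage of 4 μM MCA/Dpa-quenched substrate I. Assays ran at room temperature in pH 7.5 Tris/NaCl/CaCl2/Brij buffer with MMP-2 activated by trypsin or APMA; inhibitors were diluted from 1% DMSO stocks.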

[1] = substrate (I) 4 μM, room temperature, values not in parenthesis
[2] = value outside parentheses (Ki in parenthesis)

Compound	IC50 (Human recombinant MMP-1; [1])	IC50 (Human recombinant MMP-13; [1])	IC50 (Human recombinant MMP-9; [1])	IC50 (Human recombinant MMP-14; [1])	IC50 (Human recombinant MMP-2; [1])	other results
COc1ccc(C(=O)NCCCOc2ccc(S(=O)(=O)C3(C(=O)NO)CCN(C4CC4)CC3)cc2)cc1 [Example 18, 1-cyclopropyl-N-hydroxy-4-[[4-[3[(4-methoxybenzoyl)amino]propoxy]phenyl]sulfonyl]-4-piperidinecarboxamide, Monohydrochloride]	> 10000 nM	1.8 nM	6000 nM	> 10000 nM	537 nM	–
CN(CCCOc1ccc(S(=O)(=O)C2(C(=O)NO)CCOCC2)cc1)C(=O)c1ccc(N(C)C)cc1 [Example 19, 4-[[4-[3-[[4-(dimethylamino)benzoyl]methylamino]propoxy]phenyl]sulfonyl]tetrahydro-N-hydroxy-2H-pyran-4-carboxamide]	> 10000 nM	15 nM	5190 nM	> 10000 nM	9000 nM	–
CN(C)c1ccc(NC(=O)CCCCOc2ccc(S(=O)(=O)C3(C(=O)NO)CCOCC3)cc2)cc1 [Example 20, 4-[[4-[[5-[[4-(dimethylamino)-phenyl]amino]-5-oxopentyl]oxy]phenyl]sulfonyl]tetrahydro-N-hydroxy-2H-pyran-4-carboxamide, Monohydrochloride]	> 10000 nM	1.8 nM	498 nM	> 10000 nM	1.8 nM	–
O=C1c2ccccc2C(=O)N1CCCOc1ccc(S(=O)(=O)C2(C(=O)NO)CCOCC2)cc1 [Example 21, 4-[[4-[3-(1,3-dihydro-1,3-dioxo2H-isoindol-2-yl)propoxy]phenyl]sulfonyl]tetrahydro-N-hydroxy-2H-pyran-4-carboxamide]	> 10000 nM	3.5 nM	> 10000 nM	> 10000 nM	450 nM	–
O=C1c2ccccc2CN1CCCOc1ccc(S(=O)(=O)C2(C(=O)NO)CCOCC2)cc1 [Example 22, 4-[[4-[3-(1,3-dihydro-1-oxo-2H-isoindol-2-yl)propoxy]phenyl]sulfonyl]tetrahydro-N-hydroxy-2H-pyran-4-carboxamide]	> 10000 nM	4.9 nM	> 10000 nM	> 10000 nM	1000 nM	–
COc1ccc(/C(CCCCOc2ccc(S(=O)(=O)C3(C(=O)NO)CCOCC3)cc2)=N/O)c(OC)c1 [Example 25]	> 10000 nM	1.8 nM	8500 nM	> 10000 nM	247 nM	–
COc1ccc(C(=O)C(C)CCCOc2ccc(S(=O)(=O)C3(C(=O)NO)CCOCC3)cc2)cc1 (centres unmarked) [Example 26, tetrahydro-N-hydroxy-4-[[4-[[5-(4-methyloxyphenyl)-4-methyl-5-oxopentyl]oxy]phenyl]sulfonyl]-2H-pyran-4-carboxamide]	> 10000 nM	3.4 nM	4430 nM	> 10000 nM	52 nM	–
COc1ccc(/C(C#N)=C/CCCOc2ccc(S(=O)(=O)C3(C(=O)NO)CCOCC3)cc2)cc1 [Example 27, 4-[[4-[[(4Z)-5-cyano-5-(4-methoxyphenyl)-4-pentenyl]oxy]phenyl]sulfonyl]tetrahydro-N-hydroxy-2H-pyran-4-carboxamide]	> 10000 nM	0.2 nM	9370 nM	> 10000 nM	83.9 nM	–
COc1ccc(/C(C)=C/CCCOc2ccc(S(=O)(=O)C3(C(=O)NO)CCOCC3)cc2)cc1 [Example 28, tetrahydro-N-hydroxy-4-[[4[[(4E)-5-(4-methoxyphenyl)-4-hexenyl]oxy]phenyl]sulfonyl]-2H-pyran-4-carboxamide]	> 10000 nM	7 nM	3710 nM	> 10000 nM	76.4 nM	–
COc1ccc(-c2coc(CCCOc3ccc(S(=O)(=O)C4(C(=O)NO)CCOCC4)cc3)n2)cc1 [Example 30, tetrahydro-N-hydroxy-4-[[4-[3-[4-(4-methoxyphenyl)-2-oxazolyl]propoxy]phenyl]sulfonyl]-2Hpyran-4-carboxamide]	> 10000 nM	1.3 nM	809 nM	> 10000 nM	22.6 nM	–
O=C1CN(c2ccccc2)C(=O)N1CCCOc1ccc(S(=O)(=O)C2(C(=O)NO)CCOCC2)cc1 [Example 174]	–	–	–	–	–	IC50 (Human recombinant MMP-1; value outside parenthesis): > 10000 nM; IC50 (Human recombinant MMP-13; value outside parenthesis): 5.2 nM; IC50 (Human recombinant MMP-9; value outside parenthesis): 4020 nM; IC50 (Human recombinant MMP-14; value outside parenthesis): > 10000 nM
CN(C)c1ccc(C(=O)CCCCOc2ccc(S(=O)(=O)C3(C(=O)NO)CCN(C4CC4)CC3)cc2)cc1 [Example 267]	–	–	–	–	–	IC50 (Human recombinant MMP-1; value outside parenthesis): > 10000 nM; IC50 (Human recombinant MMP-9; value outside parenthesis): 107 nM; IC50 (Human recombinant MMP-14; value outside parenthesis): > 10000 nM; IC50 (Human recombinant MMP-2; value outside parenthesis): 18.5 nM
COc1ccc(SCCCCOc2ccc(S(=O)(=O)C3(C(=O)NO)CCOCC3)cc2)cc1 [Example 429]	–	–	–	–	–	IC50 (Human recombinant MMP-13; [2]): 0.5 nM; IC50 (Human recombinant MMP-9; [2]): > 10000 nM; IC50 (Human recombinant MMP-14; [2]): > 10000 nM; IC50 (Human recombinant MMP-2; [2]): 6.5 nM
O=C(NO)C1(S(=O)(=O)c2ccc(OCCOCc3cccnc3)cc2)CCOCC1 [Example 517]	–	–	–	–	–	IC50 (Human recombinant MMP-1; value outside parentheses): > 10000 nM; IC50 (Human recombinant MMP-9; value outside parentheses): 138 nM; IC50 (Human recombinant MMP-14; value outside parentheses): > 10000 nM; IC50 (Human recombinant MMP-2; value outside parentheses): 34.7 nM
O=C(NO)C1(S(=O)(=O)c2ccc(OCCOCc3cccnc3)cc2)CCOCC1 [Example 518]	–	–	–	–	–	IC50 (Human recombinant MMP-1; value outside parentheses): > 10000 nM; IC50 (Human recombinant MMP-9; value outside parentheses): 115 nM; IC50 (Human recombinant MMP-14; value outside parentheses): 967 nM; IC50 (Human recombinant MMP-2; value outside parentheses): 26.4 nM
O=C(Cc1cccs1)NCCOc1ccc(S(=O)(=O)C2(C(=O)NO)CCOCC2)cc1 [Example 617]	–	–	–	–	–	IC50 (Human recombinant MMP-13; value outside parentheses): 0.6 nM; IC50 (Human recombinant MMP-9; value outside parentheses): 413 nM; IC50 (Human recombinant MMP-14; value outside parentheses): 4130 nM; IC50 (Human recombinant MMP-2; value outside parentheses): 0.8 nM
